# Source: the supplement of paper PMC11061612
# What was measured:
# Assay in all cases: Bliss excess, mean over the matrix (fraction); higher = more synergy
# [1] = tested on: BL-41 (Burkitt's Lymphoma)
# Outline: (§1)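 Cell lines grown in DMEM/F12 or RPMI with 10% FBS were plated in 1536-well plates and held 24 hours at 37°C, 5% CO2 before 72 hours of exposure to two-drug dose matrices, with DMSO typically at 0.2%. CellTiter-Glo 2.0 luminescence gave viability, which was converted to inhibition. Vehicle wells were set to 0 and blank wells to 1. Combination Emax is the second-highest inhibition in the matrix, and Bliss excess is the observed combination effect minus the expected EA + EB − EA·EB, where EA and EB are the single-agent effects.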
# [2] = tested on: CAMA-1 (Breast Carcinoma)
# Outline: as §1
# [3] = tested on: DiFi (Colorectal Carcinoma)
# Outline: as §1
# [4] = tested on: ES8 (Ewing's Sarcoma)
# Outline: as §1
# [5] = tested on: EVSA-T (Breast Carcinoma)
# Outline: as §1
# [6] = tested on: HDQ-P1 (Breast Carcinoma)
# Outline: as §1
# [7] = tested on: KYSE-180 (Esophageal Squamous Cell Carcinoma)
# Outline: as §1
# [8] = tested on: MEL-JUSO (Melanoma)
# Outline: as §1
# [9] = tested on: MFM-223 (Breast Carcinoma)
# Outline: as §1
# [10] = tested on: MKN28 (Gastric Carcinoma)
# Outline: as §1
# [11] = tested on: MS751 (Cervical Carcinoma)
# Outline: as §1
# [12] = tested on: NCI-H1792 (Lung Adenocarcinoma)
# Outline: as §1
# [13] = tested on: NCI-H847 (Small Cell Lung Carcinoma)
# Outline: as §1
# [14] = tested on: SU-DHL-8 (B-Cell Non-Hodgkin's Lymphoma)
# Outline: as §1
# [15] = tested on: SW1417 (Colorectal Carcinoma)
# Outline: as §1
# [16] = tested on: TC-71 (Ewing's Sarcoma)
# Outline: as §1
# [17] = tested on: TE-6 (Esophageal Squamous Cell Carcinoma)
# Outline: as §1
# [18] = tested on: U251 (Low Grade Glioma)
# Outline: as §1
# [19] = tested on: WIL2-NS (Non-Cancerous)
# Outline: as §1
SMILES,Bliss excess [1],Bliss excess [2],Bliss excess [3],Bliss excess [4],Bliss excess [5],Bliss excess [6],Bliss excess [7],Bliss excess [8],Bliss excess [9],Bliss excess [10],Bliss excess [11],Bliss excess [12],Bliss excess [13],Bliss excess [14],Bliss excess [15],Bliss excess [16],Bliss excess [17],Bliss excess [18],Bliss excess [19]
"Cc1cc2ncnn2cc1Nc1ncc2c(n1)n(C1CCOCC1)c(=O)n2C [AZD7648] + CN(C)CCCOc1ccc(-c2ccc3ncc4c(c3c2)n(C2CCOCC2)c(=O)n4C)cn1 [AZD0156] (first compound max 10 µM, 7x7, partner max 1 µM)",0.0154,-0.0238,-0.0119,0.0803,-0.0126,0.0157,0.0126,-0.0029,-0.0325,-0.0127,0.0217,0.0149,-0.0113,0.016,-0.0262,0.0438,-0.0515,0.0214,-0.0264
"Cc1cc2ncnn2cc1Nc1ncc2c(n1)n(C1CCOCC1)c(=O)n2C [AZD7648] + C[C@@H]1COCCN1C2=NC(=NC(=C2)C3(CC3)[S@](=N)(=O)C)C4=C5C=CNC5=NC=C4 [AZD6738] (first compound max 10 µM, 7x7, partner max 10 µM)",-0.0052,-0.0631,0.0639,0.0071,0.0622,-0.0229,0.0394,0.0289,-0.0127,-0.0081,0.0606,-0.0047,0.0519,-0.0136,0.0175,0.041,0.0697,0.0581,0.0015
"Cc1cc2ncnn2cc1Nc1ncc2c(n1)n(C1CCOCC1)c(=O)n2C [AZD7648] + O=C(c1cc(Cc2n[nH]c(=O)c3ccccc23)ccc1F)N1CCN(C(=O)C2CC2)CC1 [Olaparib] (first compound max 10 µM, 7x7, partner max 10 µM)",-0.0368,-0.054,-0.0484,-0.0626,-0.0077,0.0133,-0.0406,-0.0264,-0.0131,-0.0411,0.0017,-0.033,-0.0071,0.0195,-0.0597,-0.0106,-0.0419,0.0043,-0.0669
"COc1cccc2c1C(=O)c1c(O)c3c(c(O)c1C2=O)C[C@@](O)(C(=O)CO)C[C@@H]3O[C@H]1C[C@H](N)[C@H](O)[C@H](C)O1 [Doxorubicin] + Cc1cc2ncnn2cc1Nc1ncc2c(n1)n(C1CCOCC1)c(=O)n2C [AZD7648] (first compound max 1 µM, 7x7, partner max 10 µM)",0.0714,0.0266,0.051,0.125,0.0503,0.0561,0.0587,0.0309,0.0261,-0.0179,0.135,0.067,0.124,0.0145,0.0216,0.162,-0.0541,0.0913,0.0885
"COc1cccc(OCCCN)c1-c1cc(Nc2cnc(C#N)cn2)n[nH]1 [Prexasertib] + C=CCn1c(=O)c2cnc(Nc3ccc(N4CCN(C)CC4)cc3)nc2n1-c1cccc(C(C)(C)O)n1 [AZD1775] (first compound max 1 µM, partner max 1 µM)",0.0467,0.11,0.0236,0.0633,0.0197,0.0861,0.132,0.0303,0.0825,0.0901,0.0653,0.0638,0.0809,-0.0202,0.0443,0.0949,0.0995,0.0943,0.0513
"COc1cccc(OCCCN)c1-c1cc(Nc2cnc(C#N)cn2)n[nH]1 [Prexasertib] + CN(C)CCCOc1ccc(-c2ccc3ncc4c(c3c2)n(C2CCOCC2)c(=O)n4C)cn1 [AZD0156] (first compound max 1 µM, 7x7, partner max 1 µM)",-0.0134,0.0046,-0.0503,-0.011,-0.0133,0.023,0.0022,0.0301,-0.0028,-0.0286,0.02,-0.0104,-0.0124,-0.0553,-0.0473,0.026,-0.0081,-0.0092,-0.0281
"COc1cccc(OCCCN)c1-c1cc(Nc2cnc(C#N)cn2)n[nH]1 [Prexasertib] + C[C@@H]1COCCN1C2=NC(=NC(=C2)C3(CC3)[S@](=N)(=O)C)C4=C5C=CNC5=NC=C4 [AZD6738] (first compound max 1 µM, 7x7, partner max 10 µM)",-0.0066,-0.0484,-0.0794,-0.0371,0.0094,0.11,-0.0702,-0.0307,-0.106,0.0579,0.0539,-0.0129,-0.035,-0.0214,0.0572,-0.0164,0.0669,-0.0193,-0.0021
"COc1cccc(OCCCN)c1-c1cc(Nc2cnc(C#N)cn2)n[nH]1 [Prexasertib] + Cc1cc2ncnn2cc1Nc1ncc2c(n1)n(C1CCOCC1)c(=O)n2C [AZD7648] (first compound max 1 µM, 7x7, partner max 10 µM)",-0.0265,-0.0206,-0.0046,-0.0489,0.017,-0.0236,-0.0431,-0.0383,0.0065,-0.0172,-0.0156,-0.0227,0.0131,-0.0221,0.001,-0.0419,0.001,-0.0114,-0.0285
